In brackets after ≈: the same amount, converted by molar mass.
What was measured:
[1] = system: IL-4 release in whole-blood; assay: in vitro IL-4 release assay in whole-blood of healthy volunteers; format: cell-based; details: Homo sapiens; whole-blood of healthy volunteers (n=4)
From the text: (§1) Data are reported as geometric means.

[2] = Systemic exposure in DELTA 2: plasma concentrations of delgocitinib after cream application (LC/MS); format: in vivo, human; details: for plasma concentration of delgocitinib (geometric mean): 2-6 hours after application of cream 20 mg/g twice daily
From the text: as §1

[3] = Phase 1 trial, single oral doses of delgocitinib in healthy volunteers; format: in vivo; details: human, plasma, single oral dose 1.5 mg, read-out: peak systemic exposure (geometric mean Cmax)
From the text: as §1

[4] = Half-life following repeated topical administration of delgocitinib cream; format: in vivo; details: human, plasma, 20 mg/g
[5] = system: adult patients with moderate-to-severe CHE; assay: DELTA 1 and DELTA 2 together (pooled analyses and statements made for both trials); format: in vivo, human
Experimental: In a pooled analysis of both trials, changes in EQ-5D scores from baseline to week 16 were assessed in all patients and in a post-hoc analysis of patients achieving clinical responses (defined as Hand Eczema Area and Severity Index (HECSI)-50, -75, and -90, Investigator's Global Assessment for CHE treatment success [IGA-CHE TS; clear or almost clear skin with a ≥2-step improvement from baseline] and ≥4-point improvements in Hand Eczema Symptom Diary (HESD) itch and pain scores.
DELTA 1 and DELTA 2 were phase 3 trials of identical design. […] Data were pooled from both trials and changes in DLQI scores were assessed from baseline to week 16 in all patients and in a post-hoc analysis of patients achieving clinical responses, defined as Hand Eczema Area and Severity Index (HECSI)-50, -75, and -90, Investigator's Global Assessment for CHE treatment success (IGA-CHE TS; a score of 0/1 with a ≥2-step improvement from baseline), and ≥4-point improvements in Hand Eczema Symptom Diary (HESD) itch and pain scores.
The Hand Eczema Symptom eDiary (HESD) captured patient-reported severity of itch and pain over the past 24 hours on an 11-point numeric rating scale (0=no itch/pain to 10=severe itch/pain). Changes in itch and pain from baseline were assessed daily during Week (W)1 and weekly from W1-16.

Plasma protein binding = format: in vitro ADME

SMILES: C[C@H]1CN(C(=O)CC#N)[C@]12CCN(c1ncnc3[nH]ccc13)C2 [delgocitinib, Delgocitinib]
- IC50 [1]: 0.0172 µg/mL (≈ 0.0554 µM)
- decrease of detectable absorption by week 16 ([2]; DELTA 2): 48%
- plasma concentration of delgocitinib (geometric mean) ([2]; DELTA 2, Week 1): 0.21 ng/mL
- plasma concentration of delgocitinib (geometric mean) ([2]; DELTA 2, Week 4): 0.20 ng/mL
- plasma concentration of delgocitinib (geometric mean) ([2]; DELTA 2, Week 16): 0.12 ng/mL
- mean plasma concentration in the remaining subjects with detectable absorption ([2]; DELTA 2, week 16): 0.11 ng/mL
- steady state reached ([2]; given as Delta 2): ≤ 8 days
- AUC(0-t) ([2]; human, plasma, topical, 20 mg/g, given as Delta 2, day 8, read-out: area under the concentration-curve from time 0 to 12 hours (AUC0-12), geometric mean): 3.7 ng·h/mL
- Cmax ([2]; human, plasma, topical, 20 mg/g, given as Delta 2, day 8, read-out: geometric mean maximum plasma concentration (Cmax)): 0.46 ng/mL
- Cmax [3]: 7.2 ng/mL
- half-life [4]: 20.3 h
- rates of all AEs, AEs related to study drug and AEs leading to discontinuation of study drug, versus cream vehicle ([5]; baseline to trial completion): numerically higher with cream vehicle compared to delgocitinib
- onset of itch and pain reduction ([5]; pooled): Early onset of itch and pain reduction was observed within W1
- fraction unbound (Plasma protein binding): 0.71 to 0.78
